In US20150105252A1, “SUBSTITUTED PYRAZOLES AS HERBICIDES” (E I DU PONT DE NEMOURS AND COMPANY, priority 2013, published 2015):

Tests used:
Assay in all cases: Test F preemergence
green foxtail = format: in vivo, Setaria viridis
From the text: (§1) Seeds of plant species selected from corn (Zea mays), soybean (Glycine max), velvetleaf (Abutilon theophrasti), lambsquarters (Chenopodium album), wild poinsettia (Euphorbia heterophylla), pigweed, palmer (palmer pigweed, Amaranthus palmeri), common waterhemp (Amaranthus rudis), surinam grass (Brachiaria decumbens), large crabgrass (Digitaria sanguinalis), crabgrass, Brazil (Brazilian crabgrass, Digitaria horizontalis), fall panicum (Panicum dichotomiflorum), giant foxtail (Setaria faberii), green foxtail (Setaria viridis), goosegrass (Eleusine indica), johnsongrass (Sorghum halepense), common ragweed (Ambrosia elation), barnyardgrass (Echinochloa crus-galli), southern sandbur (Cenchrus echinatus), arrowleaf sida (Sida rhombifolia), Italian ryegrass (Lolium multiflorum), dayflower, VA (Virginia (VA) dayflower, Commelina virginica), field bindweed (Convolvulus arvensis), cocklebur (common cocklebur, Xanthium strumarium), morningglory (Ipomoea coccinea), nightshade (eastern black nightshade, Solanum ptycanthum), kochia (Kochia scoparia), yellow nutsedge (Cyperus esculentus), and hairy beggarticks (Bidens pilosa), were planted into a silt loam soil and treated preemergence with test chemicals formulated in a non-phytotoxic solvent mixture which included a surfactant.
(§2) At the same time, plants from these crop and weed species and also horseweed (Canada horseweed, Conyza canadensis), smartweed (ladysthumb smartweed, Polygonum persicaria), waterhemp_RES1, (ALS & Triazine resistant common waterhemp, Amaranthus rudis), and waterhemp_RES2, (ALS & HPPD resistant common waterhemp, Amaranthus rudis) were treated with postemergence applications of test chemicals formulated in the same manner. Plants ranged in height from 2 to 18 cm for postemergence treatments (1- to 4-leaf stage). Treated plants and controls were maintained in a greenhouse for 14 to 21 days, after which time all species were compared to controls and visually evaluated. Plant response ratings, summarized in Table F, are based on a scale of 0 to 100 where 0 is no effect and 100 is complete control. A dash (-) response means no test result.

goosegrass = format: in vivo, Eleusine indica
From the text: as §1, §2

common ragweed = format: in vivo, Ambrosia elation
From the text: as §1, §2

barnyardgrass = format: in vivo, Echinochloa crus-galli
From the text: as §1, §2

nightshade = format: in vivo, Solanum ptycanthum
From the text: as §1, §2

hairy beggarticks = format: in vivo, Bidens pilosa
From the text: as §1, §2

[1] = Preemergence, 62 g ai/ha, scale 0 to 100
[2] = Preemergence, 125 g ai/ha, scale 0 to 100
[3] = Preemergence, 250 g ai/ha, scale 0 to 100
[4] = preemergence, 16 g ai/ha, scale 0 to 100, 100 is complete control
[5] = Preemergence, 16 g ai/ha, scale 0 to 100
[6] = Preemergence, 31 g ai/ha, scale 0 to 100
[7] = preemergence, 8 g ai/ha, scale 0 to 100, 100 is complete control

Row | Compound | Plant response rating, Green Foxtail (green foxtail; [1]) | Plant response rating, Green Foxtail (green foxtail; [2]) | Plant response rating, Green Foxtail (green foxtail; [4]) | Plant response rating, Goosegrass (goosegrass; [1]) | Plant response rating, Goosegrass (goosegrass; [2]) | Plant response rating, Goosegrass (goosegrass; [4]) | Plant response rating, Common Ragweed (common ragweed; [1]) | Plant response rating, Common Ragweed (common ragweed; [2]) | Plant response rating, Common Ragweed (common ragweed; [4]) | Plant response rating, Barnyardgrass (barnyardgrass; [1]) | Plant response rating, Barnyardgrass (barnyardgrass; [2]) | Plant response rating, Barnyardgrass (barnyardgrass; [4]) | Plant response rating, Nightshade (nightshade; [1]) | Plant response rating, Nightshade (nightshade; [2]) | Plant response rating, Nightshade (nightshade; [4]) | Plant response rating, Hairy Beggarticks (hairy beggarticks; [1]) | Plant response rating, Hairy Beggarticks (hairy beggarticks; [2]) | Plant response rating, Hairy Beggarticks (hairy beggarticks; [4]) | further results
1 | CCCc1cc(C(=O)NC(C)C)nn1Cc1cc(C(F)(F)F)nn1C [Compound 201] | 40 | 75 | 0 | 50 | 95 | 0 | 0 | 35 | 0 | 10 | 85 | 0 | 80 | 95 | 0 | 20 | 35 | 0 | Plant response rating, Green Foxtail (green foxtail; [3]): 80; Plant response rating, Goosegrass (goosegrass; [3]): 95; Plant response rating, Common Ragweed (common ragweed; [5]): 0; Plant response rating, Common Ragweed (common ragweed; [3]): 65; Plant response rating, Barnyardgrass (barnyardgrass; [5]): 0; Plant response rating, Barnyardgrass (barnyardgrass; [3]): 95; Plant response rating, Nightshade (nightshade; [5]): 10; Plant response rating, Nightshade (nightshade; [3]): 98; Plant response rating, Hairy Beggarticks (hairy beggarticks; [3]): 40
2 | CCc1cc(-c2ccc(C(F)(F)F)cc2)nn1Cc1ccnc(C(F)(F)F)c1 [Compound 110] | 100 | 100 | 30 | 60 | 95 | 15 | 80 | 90 | 0 | 10 | 35 | 0 | 85 | 95 | 65 | 30 | 50 | 35 | Plant response rating, Green Foxtail (green foxtail; [6]): 75; Plant response rating, Green Foxtail (green foxtail; [7]): 25; Plant response rating, Goosegrass (goosegrass; [6]): 35; Plant response rating, Goosegrass (goosegrass; [7]): 0; Plant response rating, Common Ragweed (common ragweed; [6]): 25; Plant response rating, Common Ragweed (common ragweed; [7]): 0; Plant response rating, Barnyardgrass (barnyardgrass; [6]): 0; Plant response rating, Barnyardgrass (barnyardgrass; [7]): 0; Plant response rating, Nightshade (nightshade; [6]): 80; Plant response rating, Nightshade (nightshade; [7]): 50; Plant response rating, Hairy Beggarticks (hairy beggarticks; [6]): 35; Plant response rating, Hairy Beggarticks (hairy beggarticks; [7]): 50
